Test results published in patent US9499862B2, “Phospholinked dye analogs with an amino acid linker” (Pacific Biosciences of California, Inc., priority 2010, dated 2016).

System: DNA polymerase
Conditions: for 2SS characteristics: two slow step character, equals K1/K2; for K1 (S-1) / K2 (S-1): two slow step results, single molecule DNA sequencing, cyanine dye conjugate
From the text: In some cases, the system will have four kinetically observable (slow) reaction steps, two slow steps in a bright phase and two slow steps in a dark phase.

SMILES | 2SS characteristics | K1 (S-1) | K2 (S-1)
CC1(C)C(/C=C/C=C/C=C2/N(CCCCCC(=O)NC(CCC(=O)O)C(=O)NC(CCC(=O)O)C(=O)NCCCCCCOP(=O)(O)OP(=O)(O)OP(=O)(O)OC[C@H]3O[C@@H](n4ccc(N)nc4=O)CC3O)c3ccc4c(S(=O)(=O)O)cc(S(=O)(=O)O)cc4c3C2(C)C)=[N+](CCCS(=O)(=O)[O-])c2ccc3c(S(=O)(=O)O)cc(S(=O)(=O)O)cc3c21 (stereo partly drawn) [2Glu-tri-phosphate] | 7.3 | 7.898 | 1.082
CC1(C)C(/C=C/C=C/C=C2/N(CCCCCC(=O)NC(CCCCN)C(=O)NC(CCCCN)C(=O)NCCCCCCOP(=O)(O)OP(=O)(O)OP(=O)(O)OC[C@H]3O[C@@H](n4ccc(N)nc4=O)CC3O)c3ccc4c(S(=O)(=O)O)cc(S(=O)(=O)O)cc4c3C2(C)C)=[N+](CCCS(=O)(=O)[O-])c2ccc3c(S(=O)(=O)O)cc(S(=O)(=O)O)cc3c21 (stereo partly drawn) [2Lys-tri-phosphate] | 6.5 | 2.645 | 0.406
